Each block holds one compound with its values, some of them ahead of it. Calls of active or inactive are those of the source.
Assays:
[1] = molecular target: Voltage-dependent T-type calcium channel subunit alpha-1H (Homo sapiens, UniProt O95180); assay type: functional;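 also: channel activity triggered by adding a high calcium stimulation buffer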
[2] = molecular target: T1, Short transient receptor potential channel 4 (Mus musculus, UniProt Q9QUQ5); test: mouse TRPC4 channel inhibitors, dose response, cell-based, HEK293 TRPC4/mu-opioid, Fluo-4 calcium (AID 434942); assay type: functional;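 also: potency of inhibitors blocking the TRPC4 calcium response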
T1 sequence (Q9QUQ5 whole entry): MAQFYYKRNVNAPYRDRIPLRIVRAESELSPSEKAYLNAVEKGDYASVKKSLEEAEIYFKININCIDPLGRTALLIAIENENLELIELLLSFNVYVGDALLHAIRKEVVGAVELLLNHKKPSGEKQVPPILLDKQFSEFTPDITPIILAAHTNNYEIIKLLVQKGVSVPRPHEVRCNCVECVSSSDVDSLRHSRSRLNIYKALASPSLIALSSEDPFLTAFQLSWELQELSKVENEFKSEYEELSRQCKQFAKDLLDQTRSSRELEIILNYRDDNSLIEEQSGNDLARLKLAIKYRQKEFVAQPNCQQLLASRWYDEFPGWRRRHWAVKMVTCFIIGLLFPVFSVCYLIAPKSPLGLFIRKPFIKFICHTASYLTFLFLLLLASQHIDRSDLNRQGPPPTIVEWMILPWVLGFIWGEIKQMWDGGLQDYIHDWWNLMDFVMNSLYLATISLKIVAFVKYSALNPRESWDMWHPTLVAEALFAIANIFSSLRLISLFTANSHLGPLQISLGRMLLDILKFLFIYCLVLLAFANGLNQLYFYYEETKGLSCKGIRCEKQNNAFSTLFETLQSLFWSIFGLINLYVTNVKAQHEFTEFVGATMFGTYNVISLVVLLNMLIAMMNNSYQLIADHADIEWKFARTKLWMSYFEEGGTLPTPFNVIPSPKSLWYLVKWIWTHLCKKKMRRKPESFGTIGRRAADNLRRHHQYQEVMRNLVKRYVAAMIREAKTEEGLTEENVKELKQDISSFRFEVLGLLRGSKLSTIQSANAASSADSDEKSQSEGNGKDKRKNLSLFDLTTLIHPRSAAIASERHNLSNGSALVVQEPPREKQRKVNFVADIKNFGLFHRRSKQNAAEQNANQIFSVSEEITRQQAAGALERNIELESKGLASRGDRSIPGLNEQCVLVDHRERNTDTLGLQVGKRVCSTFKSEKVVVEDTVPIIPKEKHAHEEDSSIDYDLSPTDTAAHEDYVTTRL

[3] = molecular target: T2, Zinc finger protein mex-5 (Caenorhabditis elegans, UniProt Q9XUB2); test: MEX-5/TCR-2 RNA interaction inhibitors, dose response, biochemical, C. elegans, fluorescence polarization (AID 1960)
T2 sequence (Q9XUB2 whole entry): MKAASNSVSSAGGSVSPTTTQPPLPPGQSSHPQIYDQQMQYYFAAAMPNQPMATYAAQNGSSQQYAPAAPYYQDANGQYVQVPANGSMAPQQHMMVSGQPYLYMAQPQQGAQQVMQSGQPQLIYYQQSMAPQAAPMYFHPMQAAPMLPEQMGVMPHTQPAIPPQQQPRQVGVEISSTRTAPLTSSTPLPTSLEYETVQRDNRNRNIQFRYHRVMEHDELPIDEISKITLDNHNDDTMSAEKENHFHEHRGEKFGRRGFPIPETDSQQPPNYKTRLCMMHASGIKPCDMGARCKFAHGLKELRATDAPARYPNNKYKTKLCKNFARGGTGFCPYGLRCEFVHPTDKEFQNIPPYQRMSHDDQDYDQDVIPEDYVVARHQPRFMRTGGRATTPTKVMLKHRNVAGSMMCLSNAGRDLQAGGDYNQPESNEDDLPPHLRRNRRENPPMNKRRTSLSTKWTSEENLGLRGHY

[4] = molecular target: Peroxisome proliferator-activated receptor gamma/Nuclear receptor corepressor 2 (Homo sapiens, UniProt P37231+Q9Y618); assay type: functional
[5] = molecular target: T3, RNA-binding protein pos-1 (Caenorhabditis elegans, UniProt G5EF15); test: inhibitors of POS-1/mex-3 RNA binding, dose response, biochemical, fluorescence polarization (AID 1964);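 also: purified POS-1 fused to maltose binding protein made in E. coli; potency of compounds blocking POS-1 binding to fluorescent RNA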
T3 sequence (G5EF15 whole entry): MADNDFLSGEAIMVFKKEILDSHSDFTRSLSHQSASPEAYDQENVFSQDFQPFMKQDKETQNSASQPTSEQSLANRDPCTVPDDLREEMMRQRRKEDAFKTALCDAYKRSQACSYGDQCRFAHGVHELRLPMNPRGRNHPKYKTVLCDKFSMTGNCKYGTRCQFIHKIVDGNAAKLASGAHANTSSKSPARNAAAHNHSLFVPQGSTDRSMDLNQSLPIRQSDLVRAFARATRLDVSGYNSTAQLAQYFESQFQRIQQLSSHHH

Genome polyprotein = Genome polyprotein (dengue virus type 2, UniProt P29990); test: Dengue-2 NS5 methyltransferase inhibitors, primary screen, biochemical, confirmation dose response (AID 588689); assay type: functional
Sequence of Genome polyprotein (P29990 2492-3391 limits assumed): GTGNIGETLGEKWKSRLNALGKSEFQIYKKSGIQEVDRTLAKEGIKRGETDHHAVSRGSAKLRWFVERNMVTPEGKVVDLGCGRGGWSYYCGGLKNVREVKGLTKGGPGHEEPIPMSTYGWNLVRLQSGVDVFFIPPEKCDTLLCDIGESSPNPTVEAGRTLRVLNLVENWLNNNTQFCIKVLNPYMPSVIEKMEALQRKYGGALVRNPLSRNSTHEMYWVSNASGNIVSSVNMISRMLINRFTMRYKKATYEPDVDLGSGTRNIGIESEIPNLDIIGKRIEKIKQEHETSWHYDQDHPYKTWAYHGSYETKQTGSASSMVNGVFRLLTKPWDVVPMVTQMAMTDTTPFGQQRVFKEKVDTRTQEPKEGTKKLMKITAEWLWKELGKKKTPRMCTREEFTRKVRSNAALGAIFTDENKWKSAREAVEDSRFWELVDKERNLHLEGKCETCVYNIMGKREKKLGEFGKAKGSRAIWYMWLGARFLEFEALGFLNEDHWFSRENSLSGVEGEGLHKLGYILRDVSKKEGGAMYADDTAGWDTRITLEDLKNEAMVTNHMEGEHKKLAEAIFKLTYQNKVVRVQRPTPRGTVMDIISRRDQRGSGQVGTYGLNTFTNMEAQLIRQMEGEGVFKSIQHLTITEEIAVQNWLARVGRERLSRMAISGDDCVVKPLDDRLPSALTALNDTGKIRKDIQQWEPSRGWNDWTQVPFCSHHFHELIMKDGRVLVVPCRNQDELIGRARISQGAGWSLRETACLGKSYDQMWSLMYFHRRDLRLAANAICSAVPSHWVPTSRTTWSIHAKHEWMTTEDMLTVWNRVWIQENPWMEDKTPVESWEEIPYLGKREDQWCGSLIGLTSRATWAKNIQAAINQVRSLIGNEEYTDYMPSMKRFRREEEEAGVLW

[6] = molecular target: Photoreceptor-specific nuclear receptor (Homo sapiens, UniProt Q9Y5X4); assay type: functional;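 also: potency for compounds that break the NR2E3 corepressor complex and count as activators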
Sequence of Photoreceptor-specific nuclear receptor (Q9Y5X4 whole entry): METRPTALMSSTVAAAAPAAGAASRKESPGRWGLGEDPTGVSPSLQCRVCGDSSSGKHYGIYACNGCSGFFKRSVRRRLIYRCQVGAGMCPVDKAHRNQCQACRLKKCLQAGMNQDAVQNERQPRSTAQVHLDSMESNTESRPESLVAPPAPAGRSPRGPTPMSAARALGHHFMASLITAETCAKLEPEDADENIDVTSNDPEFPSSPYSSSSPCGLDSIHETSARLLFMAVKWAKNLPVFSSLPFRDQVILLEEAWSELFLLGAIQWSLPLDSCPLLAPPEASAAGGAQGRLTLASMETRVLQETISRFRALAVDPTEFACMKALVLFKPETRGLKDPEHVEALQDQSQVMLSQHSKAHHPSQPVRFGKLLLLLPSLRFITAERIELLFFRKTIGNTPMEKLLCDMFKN

Streptococcus = test: Group A Streptococcus viability loss, dose response, counter-screen for streptokinase expression inhibitor project, luminescence, BacTiterGlo (AID 1915); assay type: functional, organism-based;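 also: potency for reduction of bacterial viability or growth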
[7] = tested on: Streptococcus sp. 'group A'; test: growth inhibition of control SK(-) GAS strain, dose response, counter-screen for streptokinase expression inhibitor project, luminescence, kanamycin, BacTiterGlo, confirmation (AID 1900); assay type: functional, organism-based
[8] = molecular target: T1, Short transient receptor potential channel 4; test: mouse TRPC4 channel activators, dose response, cell-based, HEK293 TRPC4/mu-opioid, Fluo-4 calcium (AID 434937); assay type: functional
[9] = molecular target: Melanin-concentrating hormone receptor 1 (Homo sapiens, UniProt Q99705); test: Late-stage fluorescence-based counterscreen for antagonists of the G-protein coupled receptor 7 (GPR7): cell-based dose response assay to identify antagonists of the melanin-concentrating hormone receptor 1 (MCHR1). [Related pubchem assays (depositor defined):AID1861, AID1880, AID1952, AID2148, AID2251, AID2257, AID485339]; assay type: functional;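 also: stimulated with 30 nM MCH peptide agonist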
Sequence of Melanin-concentrating hormone receptor 1 (Q99705 whole entry): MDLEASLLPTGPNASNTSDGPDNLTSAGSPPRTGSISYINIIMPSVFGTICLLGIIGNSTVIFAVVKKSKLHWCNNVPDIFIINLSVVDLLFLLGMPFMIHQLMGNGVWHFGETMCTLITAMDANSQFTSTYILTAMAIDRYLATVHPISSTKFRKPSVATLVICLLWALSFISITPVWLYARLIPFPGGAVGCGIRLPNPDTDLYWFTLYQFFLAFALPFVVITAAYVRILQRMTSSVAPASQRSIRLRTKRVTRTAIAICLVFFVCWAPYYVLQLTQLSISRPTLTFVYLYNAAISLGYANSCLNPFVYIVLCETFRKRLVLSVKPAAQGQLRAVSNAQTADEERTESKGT

Aminopeptidase N = molecular target: T4, Aminopeptidase N (Plasmodium falciparum FcB1/Columbia, UniProt O96935); test: P. falciparum M1AAP inhibitors, biochemical, fluorogenic H-Leu-NHMec substrate, 1536-well (AID 1445); parameters: species or system Plasmodium falciparum 3D7, 3D7
T4 sequence (O96935 whole entry): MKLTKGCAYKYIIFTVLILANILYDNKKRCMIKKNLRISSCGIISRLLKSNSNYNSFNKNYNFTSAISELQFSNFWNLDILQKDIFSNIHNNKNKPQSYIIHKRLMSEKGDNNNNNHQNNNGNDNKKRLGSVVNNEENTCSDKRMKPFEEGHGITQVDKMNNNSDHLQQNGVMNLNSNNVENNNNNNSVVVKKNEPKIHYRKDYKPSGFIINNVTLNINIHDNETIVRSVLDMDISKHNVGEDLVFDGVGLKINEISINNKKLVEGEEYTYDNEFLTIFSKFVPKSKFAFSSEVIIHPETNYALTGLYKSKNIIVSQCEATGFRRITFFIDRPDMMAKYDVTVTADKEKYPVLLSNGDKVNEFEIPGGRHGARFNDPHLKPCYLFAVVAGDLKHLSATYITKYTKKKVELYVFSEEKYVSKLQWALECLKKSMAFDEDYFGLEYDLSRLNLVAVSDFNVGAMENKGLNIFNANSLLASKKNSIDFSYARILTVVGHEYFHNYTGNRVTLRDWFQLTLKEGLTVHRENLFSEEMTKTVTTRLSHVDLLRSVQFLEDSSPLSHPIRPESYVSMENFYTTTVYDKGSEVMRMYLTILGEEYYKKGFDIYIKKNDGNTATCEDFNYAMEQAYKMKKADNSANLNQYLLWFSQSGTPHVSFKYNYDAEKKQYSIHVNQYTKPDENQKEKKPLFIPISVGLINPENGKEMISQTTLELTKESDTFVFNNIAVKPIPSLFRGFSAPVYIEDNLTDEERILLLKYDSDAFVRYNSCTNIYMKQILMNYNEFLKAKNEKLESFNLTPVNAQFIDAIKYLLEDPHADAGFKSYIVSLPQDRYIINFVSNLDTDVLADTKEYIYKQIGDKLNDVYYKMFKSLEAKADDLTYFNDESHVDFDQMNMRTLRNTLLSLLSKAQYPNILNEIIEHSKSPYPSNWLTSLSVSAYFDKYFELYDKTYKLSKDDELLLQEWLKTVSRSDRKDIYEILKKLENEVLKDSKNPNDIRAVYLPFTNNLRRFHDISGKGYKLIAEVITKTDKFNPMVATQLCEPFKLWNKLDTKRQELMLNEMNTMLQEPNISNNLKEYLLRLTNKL

Sequence of Voltage-dependent T-type calcium channel subunit alpha-1H (O95180 whole entry): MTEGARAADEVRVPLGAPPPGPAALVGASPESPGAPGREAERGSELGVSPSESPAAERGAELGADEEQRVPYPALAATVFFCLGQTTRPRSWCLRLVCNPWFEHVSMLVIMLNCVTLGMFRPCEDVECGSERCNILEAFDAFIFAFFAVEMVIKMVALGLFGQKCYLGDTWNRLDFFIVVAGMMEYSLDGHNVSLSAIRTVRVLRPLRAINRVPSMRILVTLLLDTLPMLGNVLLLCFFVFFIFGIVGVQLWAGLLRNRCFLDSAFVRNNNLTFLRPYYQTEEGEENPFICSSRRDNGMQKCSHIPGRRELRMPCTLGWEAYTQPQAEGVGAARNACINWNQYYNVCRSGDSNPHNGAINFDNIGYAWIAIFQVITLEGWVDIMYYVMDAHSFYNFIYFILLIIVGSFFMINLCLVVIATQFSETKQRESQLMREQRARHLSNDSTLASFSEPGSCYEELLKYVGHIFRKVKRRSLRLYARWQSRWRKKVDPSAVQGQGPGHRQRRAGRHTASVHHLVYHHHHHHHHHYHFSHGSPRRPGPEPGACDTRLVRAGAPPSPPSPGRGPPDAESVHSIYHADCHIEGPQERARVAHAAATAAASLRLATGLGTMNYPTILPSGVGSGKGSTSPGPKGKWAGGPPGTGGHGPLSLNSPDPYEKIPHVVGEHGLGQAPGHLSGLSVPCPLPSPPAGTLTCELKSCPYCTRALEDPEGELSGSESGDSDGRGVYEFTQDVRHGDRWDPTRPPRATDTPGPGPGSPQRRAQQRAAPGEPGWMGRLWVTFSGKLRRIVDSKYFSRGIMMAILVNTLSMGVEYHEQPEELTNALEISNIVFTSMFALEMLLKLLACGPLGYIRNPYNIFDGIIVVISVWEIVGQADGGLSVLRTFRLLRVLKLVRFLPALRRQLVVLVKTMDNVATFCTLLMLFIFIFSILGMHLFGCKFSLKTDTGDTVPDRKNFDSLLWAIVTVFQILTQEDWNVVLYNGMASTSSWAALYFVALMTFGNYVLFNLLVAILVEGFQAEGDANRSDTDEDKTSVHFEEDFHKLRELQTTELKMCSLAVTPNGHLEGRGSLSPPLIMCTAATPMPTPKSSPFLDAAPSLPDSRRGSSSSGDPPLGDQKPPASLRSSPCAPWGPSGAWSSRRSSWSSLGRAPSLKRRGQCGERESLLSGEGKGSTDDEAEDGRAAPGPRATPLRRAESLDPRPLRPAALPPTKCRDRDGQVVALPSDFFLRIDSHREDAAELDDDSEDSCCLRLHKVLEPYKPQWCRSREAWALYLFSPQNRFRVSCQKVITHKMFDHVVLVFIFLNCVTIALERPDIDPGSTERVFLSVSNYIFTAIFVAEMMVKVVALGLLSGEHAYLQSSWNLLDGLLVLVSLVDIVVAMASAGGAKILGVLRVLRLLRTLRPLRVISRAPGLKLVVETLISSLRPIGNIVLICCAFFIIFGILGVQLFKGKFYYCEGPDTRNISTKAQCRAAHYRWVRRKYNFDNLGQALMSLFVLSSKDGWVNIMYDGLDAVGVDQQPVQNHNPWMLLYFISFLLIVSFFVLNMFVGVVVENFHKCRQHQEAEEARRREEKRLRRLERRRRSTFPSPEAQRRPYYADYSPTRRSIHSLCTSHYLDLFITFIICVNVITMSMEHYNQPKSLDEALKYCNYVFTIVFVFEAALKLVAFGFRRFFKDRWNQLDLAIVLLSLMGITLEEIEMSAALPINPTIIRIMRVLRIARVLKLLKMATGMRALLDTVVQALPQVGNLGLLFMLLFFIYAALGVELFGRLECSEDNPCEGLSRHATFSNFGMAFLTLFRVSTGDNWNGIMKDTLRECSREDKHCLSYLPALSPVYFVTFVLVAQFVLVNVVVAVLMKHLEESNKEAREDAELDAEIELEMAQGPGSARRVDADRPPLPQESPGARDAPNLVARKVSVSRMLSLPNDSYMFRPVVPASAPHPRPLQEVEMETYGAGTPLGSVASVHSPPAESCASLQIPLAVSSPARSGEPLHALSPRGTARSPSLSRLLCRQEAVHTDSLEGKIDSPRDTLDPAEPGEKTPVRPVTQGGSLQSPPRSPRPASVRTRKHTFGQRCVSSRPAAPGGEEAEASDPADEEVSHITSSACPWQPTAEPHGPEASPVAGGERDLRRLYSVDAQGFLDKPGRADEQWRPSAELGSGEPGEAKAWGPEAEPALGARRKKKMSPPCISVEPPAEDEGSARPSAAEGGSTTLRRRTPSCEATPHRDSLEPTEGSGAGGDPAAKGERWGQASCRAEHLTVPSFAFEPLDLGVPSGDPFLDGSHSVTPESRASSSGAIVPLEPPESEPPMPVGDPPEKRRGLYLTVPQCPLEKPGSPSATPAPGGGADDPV

EC50 [1]: 1.98 µM (active)
Structure (SMILES): O=C(Cc1ccccc1F)Nc1nc(-c2cccs2)cs1

EC50 [2]: 3.76 µM (active)
Structure (SMILES): O=C(Nc1ccccc1Oc1cccnc1)C1CCCN(Cc2cccc(Cl)c2)C1 (centres undefined)

EC50 [1]: 4.08 µM (active)
Structure (SMILES): COc1ccccc1N1CCN(CC(=O)Nc2ccc(Cl)c(C(F)(F)F)c2)CC1

IC50 (Aminopeptidase N): 45.7 µM (active)
Structure (SMILES): O=C(Nc1ccc2c(c1)OCO2)C1CCN(S(=O)(=O)c2ccc3c(c2)OCCO3)CC1

Further lines, the compound ahead of its results:

Structure (SMILES): COC(=O)c1c(Cl)c2n3ccccc3c(C)c(-c3ccccc3)c-2c1C(=O)OC
EC50 [3]: 25.8 µM (active)
IC50 [4]: 0.0555 µM (active)
EC50 [5]: 47.5 µM (active)
IC50 (Genome polyprotein): 74.5 µM (active)
IC50 [6]: 0.303 µM (active)

Structure (SMILES): O=C(NC(=S)NNC(=O)c1ccco1)c1ccc(Br)cc1
EC50 [2]: 13.3 µM (active)
EC50 (Streptococcus): 2.16 µM (active)
EC50 [7]: 1.03 µM (active)
EC50 [8]: 5.96 µM (active)

Structure (SMILES): CCc1cnn(-c2ccc(C(C)C)cc2)c(=O)c1Oc1ccc(OC)cc1
IC50 [9]: 12.8 µM (inactive)

Reference: ChEMBL document CHEMBL1201862, “PubChem BioAssay data set” (2004)
